Data published in PubChem BioAssay (NCI).
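Tested at 5 concentrations; 48 h exposure; 96-well plates; endpoints linearly interpolated, else capped at highest concentration. The concentration for 50% growth inhibition is given as GI50. TGI marks complete inhibition of growth.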

Assays:
Assay in all cases: NCI-60 cell line screen, 48 h
[1] = test system: ACHN renal
[2] = test system: NCI-H460 lung
[3] = test system: NCI-H23 lung
[4] = test system: SK-MEL-2 melanoma
[5] = test system: RXF 393 renal
[6] = test system: OVCAR-8 ovarian
[7] = test system: NCI-H226 lung
[8] = test system: K-562 leukemia
[9] = test system: MALME-3M melanoma
[10] = test system: NCI-H522 lung
[11] = test system: UACC-257 melanoma
[12] = test system: OVCAR-5 ovarian
[13] = test system: SNB-19 CNS
[14] = test system: DU-145 prostate
[15] = test system: CCRF-CEM leukemia
[16] = test system: HCT-15 colon
[17] = test system: EKVX NSCLC
[18] = test system: COLO 205 colon
[19] = test system: U251 CNS
[20] = test system: HOP-62 NSCLC
[21] = test system: IGROV1 ovarian
[22] = test system: SR leukemia
[23] = test system: SF-539 CNS
[24] = test system: LOX IMVI melanoma
[25] = test system: HCT-116 colon
[26] = test system: M14 melanoma
[27] = test system: SF-295 CNS
[28] = test system: SK-MEL-28 melanoma
[29] = test system: CAKI-1 renal
[30] = test system: PC-3 prostate
[31] = test system: HS 578T breast
[32] = test system: A498 renal
[33] = test system: HOP-92 NSCLC
[34] = test system: OVCAR-3 ovarian
[35] = test system: MOLT-4 leukemia
[36] = test system: SK-MEL-5 melanoma
[37] = test system: HCC-2998 colon
[38] = test system: A549 NSCLC
[39] = test system: MDA-MB-435
[40] = test system: SNB-75 CNS
[41] = test system: UO-31 renal
[42] = test system: 786-0 renal
[43] = test system: T-47D breast
[44] = test system: UACC-62 melanoma
[45] = test system: RPMI-8226 leukemia
[46] = test system: MCF7 breast
[47] = test system: HL-60(TB) leukemia
[48] = test system: SF-268 CNS
[49] = test system: TK-10 renal
[50] = test system: SN12C renal
[51] = test system: NCI/ADR-RES ovarian
[52] = test system: MDA-MB-231 breast
[53] = test system: SW-620 colon
[54] = test system: KM12 colon
[55] = test system: HT29 colon
[56] = test system: OVCAR-4 ovarian

SMILES: COc1cc(Cl)c(C)cc1NC(=O)c1cc2ccccc2cc1O
- GI50 [1]: 2.67 µM
- TGI [1]: 11.4 µM
- GI50 [2]: 2.74 µM
- TGI [2]: 9.63 µM
- GI50 [3]: 1.97 µM
- TGI [3]: 8.19 µM
- GI50 [4]: 1.7 µM
- TGI [4]: 4.01 µM
- GI50 [5]: 2.84 µM
- TGI [5]: 7.01 µM
- GI50 [6]: 2.7 µM
- TGI [6]: 10.4 µM
- GI50 [7]: 1.94 µM
- TGI [7]: 6.28 µM
- GI50 [8]: 2.82 µM
- TGI [8]: 23 µM
- GI50 [9]: 1.69 µM
- TGI [9]: 10 µM
- GI50 [10]: 1.46 µM
- TGI [10]: 4.47 µM
- GI50 [11]: 1.94 µM
- TGI [11]: 5.93 µM
- GI50 [12]: 3.47 µM
- TGI [12]: 14.1 µM
- GI50 [13]: 4.34 µM
- TGI [13]: 20.7 µM
- GI50 [14]: 3.4 µM
- TGI [14]: 14.4 µM
- GI50 [15]: 3.11 µM
- TGI [15]: 19.6 µM
- GI50 [16]: 2.5 µM
- TGI [16]: 13.4 µM
- GI50 [17]: 1.65 µM
- TGI [17]: 9.03 µM
- GI50 [18]: 2.37 µM
- TGI [18]: 8.41 µM
- GI50 [19]: 2.2 µM
- TGI [19]: 10.5 µM
- GI50 [20]: 2.37 µM
- TGI [20]: 10.3 µM
- GI50 [21]: 3.04 µM
- TGI [21]: 34.4 µM
- GI50 [22]: 2.79 µM
- TGI [22]: 11.9 µM
- GI50 [23]: 2.81 µM
- TGI [23]: 10.4 µM
- GI50 [24]: 2.49 µM
- TGI [24]: 10.8 µM
- GI50 [25]: 1.95 µM
- TGI [25]: 7.1 µM
- GI50 [26]: 2.85 µM
- TGI [26]: 9.53 µM
- GI50 [27]: 2.43 µM
- TGI [27]: 7.91 µM
- GI50 [28]: 3.77 µM
- TGI [28]: 22.8 µM
- GI50 [29]: 1.65 µM
- TGI [29]: 10.6 µM
- GI50 [30]: 2.33 µM
- TGI [30]: 10.7 µM
- GI50 [31]: 2.1 µM
- TGI [31]: 7.35 µM
- GI50 [32]: 1.65 µM
- TGI [32]: 4.77 µM
- GI50 [33]: 0.398 µM
- TGI [33]: 3.57 µM
- GI50 [34]: 1.86 µM
- TGI [34]: 7.09 µM
- GI50 [35]: 2.85 µM
- TGI [35]: 14 µM
- GI50 [36]: 1.72 µM
- TGI [36]: 3.93 µM
- GI50 [37]: 3.31 µM
- TGI [37]: 12.8 µM
- GI50 [38]: 2.96 µM
- TGI [38]: 10.6 µM
- GI50 [39]: 2.6 µM
- TGI [39]: 8.92 µM
- GI50 [40]: 2.4 µM
- TGI [40]: 9.37 µM
- GI50 [41]: 1.29 µM
- TGI [41]: 10.6 µM
- GI50 [42]: 3.13 µM
- TGI [42]: 8.53 µM
- GI50 [43]: 2.07 µM
- TGI [43]: 11.7 µM
- GI50 [44]: 1.49 µM
- TGI [44]: 8.14 µM
- GI50 [45]: 1.46 µM
- TGI [45]: 6.17 µM
- GI50 [46]: 2.38 µM
- TGI [46]: 13.2 µM
- GI50 [47]: 1.89 µM
- TGI [47]: 6.92 µM
- GI50 [48]: 3.24 µM
- TGI [48]: 14.3 µM
- GI50 [49]: 2.92 µM
- TGI [49]: 7.26 µM
- GI50 [50]: 1.68 µM
- TGI [50]: 10.1 µM
- GI50 [51]: 2.55 µM
- TGI [51]: 9.04 µM
- GI50 [52]: 1.19 µM
- TGI [52]: 2.72 µM
- GI50 [53]: 3.27 µM
- TGI [53]: 13.6 µM
- GI50 [54]: 2.6 µM
- TGI [54]: 8.15 µM
- GI50 [55]: 2.88 µM
- TGI [55]: 8.34 µM
- GI50 [56]: 3.28 µM
- TGI [56]: 18.5 µM
